Values belong to the compound of their own block, whether it stands above or below them. Calls of active or inactive are those of the source. No cut-off for these calls is given here.
Key:
[1] = test system: Mus musculus; test: Upregulation of plasma EPO level in Balb/c mouse at 10 mg/kg, po administered as single dose measured after 8 hrs by ELISA; assay type: functional
[2] = in vitro; conditions: human, Caco-2
[3] = target: Cytochrome P450 2D6 (Homo sapiens, UniProt P10635); test: Inhibition of CYP2D6 in human liver microsomes by LC-MS/MS analysis; assay type: ADME
Cytochrome P450 2D6, sequence (P10635 whole entry): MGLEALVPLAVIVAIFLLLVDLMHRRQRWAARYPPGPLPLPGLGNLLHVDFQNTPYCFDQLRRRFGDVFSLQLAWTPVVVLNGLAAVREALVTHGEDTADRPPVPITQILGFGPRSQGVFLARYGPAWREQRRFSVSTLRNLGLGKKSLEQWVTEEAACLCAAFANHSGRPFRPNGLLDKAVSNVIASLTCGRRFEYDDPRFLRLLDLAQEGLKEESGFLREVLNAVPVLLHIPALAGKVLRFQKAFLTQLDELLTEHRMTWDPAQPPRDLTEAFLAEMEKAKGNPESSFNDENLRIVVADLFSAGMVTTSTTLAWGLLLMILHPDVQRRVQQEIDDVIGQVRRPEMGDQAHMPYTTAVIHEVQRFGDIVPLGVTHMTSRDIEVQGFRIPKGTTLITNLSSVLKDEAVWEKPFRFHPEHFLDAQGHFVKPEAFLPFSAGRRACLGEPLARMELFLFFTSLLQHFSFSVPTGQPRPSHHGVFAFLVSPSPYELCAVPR

[4] = target: T1, Cytochrome P450 2C8 (Homo sapiens, UniProt P10632); test: Inhibition of CYP2C8 in human liver microsomes by LC-MS/MS analysis; assay type: ADME
T1 sequence (P10632 whole entry): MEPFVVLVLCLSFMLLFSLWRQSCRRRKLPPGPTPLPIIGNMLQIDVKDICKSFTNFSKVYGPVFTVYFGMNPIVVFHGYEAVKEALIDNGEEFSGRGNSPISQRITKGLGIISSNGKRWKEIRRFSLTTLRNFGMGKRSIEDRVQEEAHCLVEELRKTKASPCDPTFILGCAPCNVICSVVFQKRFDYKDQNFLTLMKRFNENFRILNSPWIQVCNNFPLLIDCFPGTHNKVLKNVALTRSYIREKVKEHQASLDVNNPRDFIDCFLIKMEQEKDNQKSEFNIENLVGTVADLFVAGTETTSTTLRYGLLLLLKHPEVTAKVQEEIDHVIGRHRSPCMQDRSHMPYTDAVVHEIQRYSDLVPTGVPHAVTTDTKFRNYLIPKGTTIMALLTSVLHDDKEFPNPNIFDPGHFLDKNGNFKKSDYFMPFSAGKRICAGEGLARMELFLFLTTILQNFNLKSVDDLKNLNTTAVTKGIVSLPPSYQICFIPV

[5] = Total clearance in CD(SD) rat at 0.3 mg/kg, iv; assay type: ADME, organism-based; conditions: in vivo
[6] = target: Cytochrome P450 3A5 (Homo sapiens, UniProt P20815); test: Inhibition of CYP3A5 in human liver microsomes using midazolam as substrate by LC-MS/MS analysis; assay type: ADME
Cytochrome P450 3A5, sequence (P20815 whole entry): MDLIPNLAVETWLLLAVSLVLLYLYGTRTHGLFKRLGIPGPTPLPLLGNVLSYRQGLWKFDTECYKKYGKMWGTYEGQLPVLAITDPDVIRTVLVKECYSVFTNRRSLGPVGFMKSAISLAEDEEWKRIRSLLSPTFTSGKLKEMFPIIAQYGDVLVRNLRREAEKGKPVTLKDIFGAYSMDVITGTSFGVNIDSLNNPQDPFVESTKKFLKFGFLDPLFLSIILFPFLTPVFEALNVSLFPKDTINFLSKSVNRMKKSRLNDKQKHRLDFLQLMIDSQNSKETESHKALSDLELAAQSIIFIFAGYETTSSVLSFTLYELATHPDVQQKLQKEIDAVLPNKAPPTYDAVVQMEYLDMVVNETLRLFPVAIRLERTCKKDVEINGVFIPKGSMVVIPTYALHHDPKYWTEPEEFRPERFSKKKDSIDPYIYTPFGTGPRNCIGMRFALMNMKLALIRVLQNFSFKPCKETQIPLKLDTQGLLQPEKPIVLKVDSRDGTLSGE

[7] = test system: Rattus norvegicus; test: Antianemic activity in po dosed CD(SD) rat assessed as increase in hemoglobin levels administered once daily for 28 days; assay type: functional, organism-based
[8] = test system: Rattus norvegicus; test: Upregulation of plasma EPO level in CD(SD) rat at 10 mg/kg, po administered as single dose measured after 8 hrs by RIA; assay type: functional
[9] = Half life in CD(SD) rat at 0.3 mg/kg, iv; assay type: ADME, organism-based; conditions: in vivo
[10] = Solubility of the compound in FeSSIF after 4 hrs by LC-MS analysis; assay type: physicochemical
[11] = target: Egl nine homolog 1 (Homo sapiens, UniProt Q9GZT9); test: Inhibition of PHD2 in human Hep3B cells assessed as increase in EPO release after 24 hrs by ELISA; assay type: cell-based
Egl nine homolog 1, sequence (Q9GZT9 whole entry): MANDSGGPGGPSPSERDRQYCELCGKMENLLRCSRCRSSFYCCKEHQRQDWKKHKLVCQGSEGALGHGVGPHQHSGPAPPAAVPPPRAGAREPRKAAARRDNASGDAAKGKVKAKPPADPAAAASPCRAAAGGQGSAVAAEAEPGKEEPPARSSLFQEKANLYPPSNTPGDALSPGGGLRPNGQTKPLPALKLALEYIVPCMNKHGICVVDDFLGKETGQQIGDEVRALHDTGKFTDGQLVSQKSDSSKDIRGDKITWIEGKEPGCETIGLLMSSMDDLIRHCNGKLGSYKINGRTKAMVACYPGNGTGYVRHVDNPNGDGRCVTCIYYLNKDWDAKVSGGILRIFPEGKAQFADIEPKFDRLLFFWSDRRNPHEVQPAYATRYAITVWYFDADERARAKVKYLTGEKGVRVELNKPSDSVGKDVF

[12] = Metabolic stability in cynomolgus monkey liver microsomes assessed as compound remaining at 10 uM after 120 mins in presence of NADPH by Radio-HPLC analysis; assay type: ADME, Macaca fascicularis, microsome; conditions: read-out: Stability
[13] = target: T2, Cytochrome P450 2B6 (Homo sapiens, UniProt P20813); test: Inhibition of CYP2B6 in human liver microsomes by LC-MS/MS analysis; assay type: ADME
T2 sequence (P20813 whole entry): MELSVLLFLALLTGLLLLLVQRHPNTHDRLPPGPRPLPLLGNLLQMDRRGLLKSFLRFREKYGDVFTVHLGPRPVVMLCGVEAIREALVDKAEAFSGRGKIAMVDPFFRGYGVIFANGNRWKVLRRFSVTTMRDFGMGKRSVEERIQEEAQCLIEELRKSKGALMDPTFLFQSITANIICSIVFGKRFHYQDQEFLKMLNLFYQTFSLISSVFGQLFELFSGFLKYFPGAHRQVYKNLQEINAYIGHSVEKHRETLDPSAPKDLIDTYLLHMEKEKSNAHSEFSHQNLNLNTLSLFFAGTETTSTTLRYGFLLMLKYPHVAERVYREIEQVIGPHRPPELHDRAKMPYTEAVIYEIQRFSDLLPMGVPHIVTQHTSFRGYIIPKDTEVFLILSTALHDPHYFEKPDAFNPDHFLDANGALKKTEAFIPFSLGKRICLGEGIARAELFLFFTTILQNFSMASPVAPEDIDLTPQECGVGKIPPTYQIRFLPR

[14] = target: Cytochrome P450 3A4 (Homo sapiens, UniProt P08684); test: Inhibition of CYP3A4 in human liver microsomes using midozolam as substrate by LC-MS/MS analysis; assay type: ADME
Cytochrome P450 3A4, sequence (P08684 whole entry): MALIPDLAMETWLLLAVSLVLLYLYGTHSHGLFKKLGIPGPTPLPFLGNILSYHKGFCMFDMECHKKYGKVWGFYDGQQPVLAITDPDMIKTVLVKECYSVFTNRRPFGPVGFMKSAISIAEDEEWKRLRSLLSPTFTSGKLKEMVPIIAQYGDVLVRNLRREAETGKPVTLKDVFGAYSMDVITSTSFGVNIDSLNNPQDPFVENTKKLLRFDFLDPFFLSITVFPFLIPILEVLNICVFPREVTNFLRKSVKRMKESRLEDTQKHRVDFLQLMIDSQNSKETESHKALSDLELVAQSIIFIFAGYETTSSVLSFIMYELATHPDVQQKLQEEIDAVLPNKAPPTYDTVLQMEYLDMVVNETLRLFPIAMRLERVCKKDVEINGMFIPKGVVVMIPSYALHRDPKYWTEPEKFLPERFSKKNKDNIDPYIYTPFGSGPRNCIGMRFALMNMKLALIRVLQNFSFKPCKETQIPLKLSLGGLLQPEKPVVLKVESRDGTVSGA

[15] = Volume of distribution at steady state in CD(SD) rat at 0.3 mg/kg, iv; assay type: ADME, organism-based; conditions: in vivo, read-out: Vdss
[16] = target: Cytochrome P450 2C19 (Homo sapiens, UniProt P33261); test: Inhibition of CYP2C19 in human liver microsomes by LC-MS/MS analysis; assay type: ADME
Cytochrome P450 2C19, sequence (P33261 whole entry): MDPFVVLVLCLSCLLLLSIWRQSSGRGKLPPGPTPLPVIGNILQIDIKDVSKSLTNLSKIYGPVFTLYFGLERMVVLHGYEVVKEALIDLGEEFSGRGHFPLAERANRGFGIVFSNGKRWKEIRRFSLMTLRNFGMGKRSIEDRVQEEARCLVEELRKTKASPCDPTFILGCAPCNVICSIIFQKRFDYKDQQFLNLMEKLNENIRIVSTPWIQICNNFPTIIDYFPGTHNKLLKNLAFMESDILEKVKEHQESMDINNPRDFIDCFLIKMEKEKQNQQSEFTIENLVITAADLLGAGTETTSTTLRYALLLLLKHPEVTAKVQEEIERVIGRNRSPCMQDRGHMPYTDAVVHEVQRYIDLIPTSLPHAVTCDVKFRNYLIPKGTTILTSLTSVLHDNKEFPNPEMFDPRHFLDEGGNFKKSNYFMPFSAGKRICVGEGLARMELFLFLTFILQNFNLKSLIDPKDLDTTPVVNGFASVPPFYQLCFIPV

[17] = target: T3, Cytochrome P450 2A6 (Homo sapiens, UniProt P11509); test: Inhibition of CYP2A6 in human liver microsomes by LC-MS/MS analysis; assay type: ADME
T3 sequence (P11509 whole entry): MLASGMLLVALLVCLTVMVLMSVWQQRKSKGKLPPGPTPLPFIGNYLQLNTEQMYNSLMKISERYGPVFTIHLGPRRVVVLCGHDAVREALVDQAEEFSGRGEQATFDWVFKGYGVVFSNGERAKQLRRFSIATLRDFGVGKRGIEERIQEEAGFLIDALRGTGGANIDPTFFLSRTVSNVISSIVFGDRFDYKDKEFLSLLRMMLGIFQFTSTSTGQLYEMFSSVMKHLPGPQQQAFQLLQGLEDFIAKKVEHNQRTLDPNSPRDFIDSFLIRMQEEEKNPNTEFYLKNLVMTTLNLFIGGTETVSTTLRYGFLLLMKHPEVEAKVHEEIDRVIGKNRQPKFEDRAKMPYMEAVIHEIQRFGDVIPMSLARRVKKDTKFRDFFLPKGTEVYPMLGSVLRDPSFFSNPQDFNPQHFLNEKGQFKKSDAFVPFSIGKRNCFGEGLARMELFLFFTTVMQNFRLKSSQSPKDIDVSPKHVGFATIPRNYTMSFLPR

[18] = Tmax in CD(SD) rat at 1 mg/kg, po; assay type: ADME, organism-based; conditions: in vivo
[19] = target: Cytochrome P450 2C9 (Homo sapiens, UniProt P11712); test: Inhibition of CYP2C9 in human liver microsomes by LC-MS/MS analysis; assay type: ADME
Cytochrome P450 2C9, sequence (P11712 whole entry): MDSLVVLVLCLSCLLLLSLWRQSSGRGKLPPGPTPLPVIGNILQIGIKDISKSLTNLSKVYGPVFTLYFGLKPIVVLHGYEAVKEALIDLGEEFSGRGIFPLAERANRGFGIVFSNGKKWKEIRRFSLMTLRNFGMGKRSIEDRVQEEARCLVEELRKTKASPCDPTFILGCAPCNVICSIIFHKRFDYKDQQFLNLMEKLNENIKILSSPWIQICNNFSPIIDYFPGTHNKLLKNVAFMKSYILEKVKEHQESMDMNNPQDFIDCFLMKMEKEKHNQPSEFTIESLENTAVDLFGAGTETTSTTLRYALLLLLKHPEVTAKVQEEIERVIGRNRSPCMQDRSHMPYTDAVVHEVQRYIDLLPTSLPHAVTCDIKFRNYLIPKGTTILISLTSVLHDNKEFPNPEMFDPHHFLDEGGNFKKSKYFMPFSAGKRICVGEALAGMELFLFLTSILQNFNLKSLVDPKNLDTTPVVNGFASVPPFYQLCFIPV

[20] = MRT in CD(SD) rat at 0.3 mg/kg, iv; assay type: ADME, organism-based; conditions: in vivo
[21] = Metabolic stability in human pooled liver microsomes assessed as compound remaining at 10 uM after 120 mins in presence of NADPH by Radio-HPLC analysis; assay type: ADME, microsome; conditions: read-out: Stability
[22] = Solubility of the compound in FaSSIF after 4 hrs by LC-MS analysis; assay type: physicochemical
[23] = test system: Rattus norvegicus; test: Toxicity in CD(SD) rat assessed as induction of anorexia at 100 mg/kg, po administered as single dose; assay type: organism-based; conditions: in vivo
[24] = Metabolic stability in Sprague-Dawley rat liver microsomes assessed as compound remaining at 10 uM after 120 mins in presence of NADPH by Radio-HPLC analysis; assay type: ADME, microsome; conditions: read-out: Stability
[25] = Metabolic stability in Beagle dog liver microsomes assessed as compound remaining at 10 uM after 120 mins in presence of NADPH by Radio-HPLC analysis; assay type: ADME, Canis lupus familiaris, microsome; conditions: read-out: Stability
[26] = Oral bioavailability in CD(SD) rat at 1 mg/kg; assay type: ADME, organism-based; conditions: in vivo
[27] = Cmax in CD(SD) rat at 1 mg/kg, po; assay type: ADME, organism-based; parameters: dose 1 mg/kg, route oral; conditions: in vivo
[28] = target: T4, Cytochrome P450 1A2 (Homo sapiens, UniProt P05177); test: Inhibition of CYP1A2 in human liver microsomes by LC-MS/MS analysis; assay type: ADME
T4 sequence (P05177 whole entry): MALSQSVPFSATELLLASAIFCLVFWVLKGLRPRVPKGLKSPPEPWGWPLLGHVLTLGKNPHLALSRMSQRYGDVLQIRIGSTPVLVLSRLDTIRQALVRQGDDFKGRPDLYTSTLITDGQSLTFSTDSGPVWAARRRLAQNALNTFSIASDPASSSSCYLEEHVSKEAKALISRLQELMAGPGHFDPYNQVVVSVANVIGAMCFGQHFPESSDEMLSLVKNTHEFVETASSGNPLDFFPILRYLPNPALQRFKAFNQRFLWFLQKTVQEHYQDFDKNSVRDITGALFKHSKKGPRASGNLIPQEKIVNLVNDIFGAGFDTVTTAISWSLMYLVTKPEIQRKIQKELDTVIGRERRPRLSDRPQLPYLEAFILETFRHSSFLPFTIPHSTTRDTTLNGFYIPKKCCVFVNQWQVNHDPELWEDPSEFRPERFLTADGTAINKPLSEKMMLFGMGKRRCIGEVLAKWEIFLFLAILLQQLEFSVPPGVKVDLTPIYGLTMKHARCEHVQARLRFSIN

[29] = target: Voltage-gated inwardly rectifying potassium channel KCNH2 (Homo sapiens, UniProt Q12809); test: Inhibition of human ERG expressed in HEK293 cells at holding potential of -80 mV by whole cell patch clamp method; assay type: cell-based
Voltage-gated inwardly rectifying potassium channel KCNH2, sequence (Q12809 whole entry): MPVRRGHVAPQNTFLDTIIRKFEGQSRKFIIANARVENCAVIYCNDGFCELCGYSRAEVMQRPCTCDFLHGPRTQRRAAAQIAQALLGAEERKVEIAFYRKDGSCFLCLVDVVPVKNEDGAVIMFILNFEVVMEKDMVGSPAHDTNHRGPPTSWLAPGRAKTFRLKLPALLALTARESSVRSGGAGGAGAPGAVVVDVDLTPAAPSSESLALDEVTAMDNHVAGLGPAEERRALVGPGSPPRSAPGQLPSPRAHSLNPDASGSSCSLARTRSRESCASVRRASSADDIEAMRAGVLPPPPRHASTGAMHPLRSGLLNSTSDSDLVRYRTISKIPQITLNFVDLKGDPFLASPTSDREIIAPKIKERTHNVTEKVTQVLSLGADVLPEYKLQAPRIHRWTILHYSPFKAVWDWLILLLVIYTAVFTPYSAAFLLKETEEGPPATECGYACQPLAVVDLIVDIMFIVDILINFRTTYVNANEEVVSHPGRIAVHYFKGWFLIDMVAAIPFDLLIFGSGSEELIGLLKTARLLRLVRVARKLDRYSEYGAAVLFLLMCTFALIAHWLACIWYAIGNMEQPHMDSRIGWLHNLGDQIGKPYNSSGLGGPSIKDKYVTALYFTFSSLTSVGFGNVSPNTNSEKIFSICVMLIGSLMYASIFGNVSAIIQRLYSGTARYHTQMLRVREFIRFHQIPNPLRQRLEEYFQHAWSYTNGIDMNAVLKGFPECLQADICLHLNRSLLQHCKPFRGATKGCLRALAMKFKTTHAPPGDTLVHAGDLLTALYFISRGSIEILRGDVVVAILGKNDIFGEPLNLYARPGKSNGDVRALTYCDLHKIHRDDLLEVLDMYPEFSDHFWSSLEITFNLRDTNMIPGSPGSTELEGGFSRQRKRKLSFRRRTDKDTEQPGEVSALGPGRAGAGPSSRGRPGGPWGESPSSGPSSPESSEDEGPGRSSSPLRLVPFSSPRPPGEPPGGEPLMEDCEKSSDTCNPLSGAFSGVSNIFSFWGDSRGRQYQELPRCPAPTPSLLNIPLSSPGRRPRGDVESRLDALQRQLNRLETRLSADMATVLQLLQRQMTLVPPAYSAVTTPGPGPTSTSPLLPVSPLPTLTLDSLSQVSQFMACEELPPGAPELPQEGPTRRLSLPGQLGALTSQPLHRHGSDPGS

[30] = test system: Rattus norvegicus; test: Antianemic activity in CD(SD) rat assessed as increase in hemoglobin levels at 10 mg/kg, po administered once daily for 28 days; assay type: functional, organism-based
[31] = test system: Rattus norvegicus; test: Antianemic activity in CD(SD) rat assessed as increase in hemoglobin levels at 3 mg/kg, po administered once daily for 28 days; assay type: functional, organism-based

Papp A→B at 2 h, 25 µM [2]: 9.3 ×10⁻⁶ cm/s
Structure (SMILES): CCc1c(O)c(C(=O)NCC(=O)O)c2ncnn2c1CC.Cl
Activity [1]: 1100 pg/mL

Papp A→B at 2 h, 25 µM [2]: 63 ×10⁻⁶ cm/s
Structure (SMILES): O=C(O)CNC(=O)c1nc(Cl)c2ccccc2c1O

Structure (SMILES): Cl.O=C(O)CNC(=O)c1c(O)cc(CCc2ccccc2)n2ncnc12
IC50 [3]: > 100 µM | IC50 [4]: > 100 µM | clearance [5]: 2.7 mL/min/kg | IC50 [6]: > 100 µM | Activity [7]: Dose-dependent effect | Activity [8]: 17000 pg/mL | half-life [9]: 1.4 h | solubility at 4 h [10]: 1300 µM | EC50 [11]: 5.7 µM | remaining at 2 h, 10 µM [12]: 94% | IC50 [13]: > 100 µM | IC50 [14]: > 100 µM | Vd [15]: 0.28 L/kg | Activity [1]: 6500 pg/mL | IC50 [16]: > 100 µM | Papp A→B at 2 h, 25 µM [2]: 13 ×10⁻⁶ cm/s | IC50 [17]: > 100 µM | Tmax [18]: 0.33 h | IC50 [19]: > 100 µM | MRT [20]: 1.8 h | remaining at 2 h, 10 µM [21]: 94% | solubility at 4 h [22]: > 2900 µM | Activity [23]: Non-Toxic | remaining at 2 h, 10 µM [24]: 98% | remaining at 2 h, 10 µM [25]: 100% | bioavailability [26]: 75% | Cmax [27]: 2700 ng/mL | IC50 [28]: > 100 µM | IC50 [29]: > 100 µM

Papp A→B at 2 h, 25 µM [2]: 2.5 ×10⁻⁶ cm/s
Structure (SMILES): Cl.O=C(O)CNC(=O)c1c(O)cc(-c2ccccc2)n2ncnc12
Activity [1]: <320 pg/mL

Papp A→B at 2 h, 25 µM [2]: 18 ×10⁻⁶ cm/s
Structure (SMILES): Cl.O=C(O)CNC(=O)c1c(O)cc(C2CCCCC2)c2ncnn12
Activity [1]: <450 pg/mL

Papp A→B at 2 h, 25 µM [2]: 6.1 ×10⁻⁶ cm/s
Structure (SMILES): O=C(O)CNC(=O)c1c(O)cc(-c2cccc(Cl)c2)n2ncnc12
Activity [8]: 7900 pg/mL | Activity [1]: >15000 pg/mL | Activity [23]: Toxic

Papp A→B at 2 h, 25 µM [2]: 9.9 ×10⁻⁶ cm/s
Structure (SMILES): CCCCc1cc(O)c(C(=O)NCC(=O)O)c2ncnn12.Cl
Activity [30]: Active | Activity [8]: 2200 pg/mL | Activity [1]: 3700 pg/mL | Activity [23]: Non-Toxic | Activity [31]: inactive

Papp A→B at 2 h, 25 µM [2]: 2.1 ×10⁻⁶ cm/s
Structure (SMILES): CCCc1cc(O)c(C(=O)NCC(=O)O)c2ncnn12.Cl
Activity [1]: <300 pg/mL

Papp A→B at 2 h, 25 µM [2]: 21 ×10⁻⁶ cm/s
Structure (SMILES): Cl.O=C(O)CNC(=O)c1c(O)cc(C2CCCCC2)n2ncnc12
Activity [1]: 540 pg/mL

Papp A→B at 2 h, 25 µM [2]: 8.9 ×10⁻⁶ cm/s
Structure (SMILES): Cc1nc2c(C(=O)NCC(=O)O)c(O)cc(CCc3ccccc3)n2n1.Cl
Activity [1]: <260 pg/mL
